# Data published in US20100056791A1, “Pyrazolopyridine carboxamide derivative and phosphodiesterase (pde) inhibitor containing the same” (priority 2006, published 2010).
# Assays:
# [1] = target: T1, PDE4B catalytic domain (PDE4Bcat) (Homo sapiens, UniProt Q07343); assay: Phosphodiesterase inhibitory activity ([3H]cAMP breakdown, recombinant PDE4Bcat); format: biochemical; conditions: 30° C. 20 minutes, read-out: IC50(μmol/L) PDE4
# T1 construct: The cDNA of PDE4B catalytic domain (hereinafter abbreviated as Cat) was isolated from human RNA by RT-PCR; made in house; host or cells: Sf9 insect cells (baculovirus, Gateway / Bac-to-Bac)
# Text: The cDNA of PDE4B catalytic domain (hereinafter abbreviated as Cat) was isolated from human RNA by RT-PCR. The isolated cDNA fragments were inserted into Sf9 insect cells using Gateway system (product of Invitrogen Corporation) and Bac-to-Bac (registered trademark) Baculovirus Expression system (product of Invitrogen Corporation) to express a target PDE protein. The recombinant PDE4Bcat was purified from the culture supernatants or cell extracts of Sf9 cells expressing high levels of the PDE protein by ion exchange chromatography and was used for the following experiments.
# A 4 mmol/L solution of each test compound was serially diluted four-fold with a 15% DMSO solution to prepare solutions with concentrations of 15 nmol/L to 4 mmol/L (the final concentrations used in the experiments were 1.5 nmol/L to 400 μmol/L). 10 μL of the prepared test compound solutions, [3H] cAMP diluted with a buffer solution (40 mmol/L Tris-HCl (pH: 7.4), 10 mmol/L MgCl2), and 40 μL of the recombinant human PDE protein (2×10^−6 units, 1 unit is defined as the amount of PDE that breaks down 1 μmol/L of cAMP in one minute under the conditions of a pH of 7.5 and 30° C.) were added to a 96-well plate. The mixtures were reacted at 30° C. for 20 minutes. Then, the resultant mixtures were reacted at 65° C. for 2 minutes. Subsequently, 25 μL of 1 mg/mL5′-nucleotidase (Crotalus atrox venom, product of Sigma) was added to the mixtures, and the mixtures were reacted at 30° C. for 10 minutes. After completion of the reaction, 200 μL of a solution of Dowex (300 mg/mL Dowex 1×8-400 (product of Sigma Aldrich), 33% ethanol) was added to the mixtures, and the mixtures were shaken at 4° C. for 20 minutes. Subsequently, 200 μL of MicroScint 20 (product of Packard) was added to the mixtures, and measurement was performed using a scintillation counter (Topcount, product of Packard). IC50 values were calculated using Graph Pad Prism v3.03 (product of GraphPad Software). When […], the results were represented by “+.” When 0.1 μmol/L>the IC50 value, the results were represented by “++.”
# [2] = tested on: histamine-induced bronchoconstriction; assay: Histamine-induced airway contraction reaction in guinea pigs; format: in vivo; conditions: Cavia porcellus, iv, 0.5 min, i.v., 0.1 mg/kg administration (not in brackets), 30 seconds after administration, read-out: Inhibition ratio
# Description: Guinea pigs were anesthetized with pentobarbital (30 mg/kg, i.p.). A cannula for intravenous administration, a cannula for collecting blood and measuring blood pressure, and a tracheal cannula were inserted into the left external jugular vein, right internal carotid artery, and trachea, respectively. The guinea pigs were maintained on artificial respiration under the conditions of 60 times/min and 10 mL/kg/stroke. The airflow from the side branch of the tracheal cannula was measured by a bronchospasm transducer (Ugo-Basile) and recorded on a computer via Power Lab (ADInstruments Japan). The guinea pigs were immobilized with gallamine (10 mg/kg, i.v.), and histamine was administered at 10-minute intervals (12.5 μg/kg, i.v.). […] We examined the inhibitory action of test compounds on histamine-induced bronchoconstriction 30 seconds after compounds administration. Bronchoconstriction was recorded as the amount of airflow, and the results were represented by the ratio of the maximum value of the histamine-induced airflow 30 seconds after the administration to the maximum value of the airflow before the administration. When the inhibition ratio≧90%, the results were represented by “+++.” When 90%>the inhibition ratio≧70%, the results were represented by “++.” When 70%>the inhibition ratio≧30%, the results were represented by “+.” The results shown in brackets are for 0.3 mg/kg administration, and the other results are for 0.1 mg/kg administration.
# [3] = tested on: LPS-induced leukocytes in bronchoalveolar lavage fluid; assay: LPS acute inflammation model in rats (total leukocytes in BALF); format: in vivo; conditions: 1 mg/kg orally one hour before LPS inhalation, total leukocytes in BALF 3 hours after LPS
# Description: 1 mg/kg of the compounds were orally administered to rats one hour before inhalation of lipopolysaccharide (LPS) from E. coli serotype 055:B5, rats were inhaled nebulizing LPS solution (50 mL) by nebulizer for 30 minutes. Then, 3 hours after the LPS inhalation, the rats were euthanized with 20% urethane (5 ml/rat, i.p.). 5 ml of physiological saline for bronchoalveolar lavage was injected into the bronchial tubes and alveoli through the airway, and the bronchial tubes and alveoli were washed 3 times using a 5 mL syringe. This procedure was repeated twice, and the solution was collected as bronchoalveolar lavage fluid (BALF). The collected BALF was centrifuged at 1,200 rpm and […] for 10 minutes (Hirtachi; himac CR 5 DL). The sediment was re-suspended in 10 mL of a 0.1% bovine serum albumin-physiological saline, and an equivalent amount of Turk's solution was added to the suspension to stain leukocytes. The total number of leukocytes was counted under a microscope to determine the inhibition ratio. When the inhibition ratio≧60%, the results were represented by “++.” When 60%>the inhibition ratio≧50%, the results were represented by “+.”
# T1 sequence (Q07343 330-659 limits assumed): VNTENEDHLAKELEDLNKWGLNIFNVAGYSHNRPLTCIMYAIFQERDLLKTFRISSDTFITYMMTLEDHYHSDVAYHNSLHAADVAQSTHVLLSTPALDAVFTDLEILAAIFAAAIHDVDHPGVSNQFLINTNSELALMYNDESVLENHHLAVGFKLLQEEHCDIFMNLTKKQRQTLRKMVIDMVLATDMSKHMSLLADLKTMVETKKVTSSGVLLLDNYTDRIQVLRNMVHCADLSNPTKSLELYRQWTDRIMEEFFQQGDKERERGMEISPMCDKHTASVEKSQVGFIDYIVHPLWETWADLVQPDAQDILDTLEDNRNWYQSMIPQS
Compound,IC50 [1] [µmol/L],inhibition in vivo at 0.1 mg/kg [2] [%],Inhibition ratio [3]
"CCc1cc2c(C(=O)Nc3c(Cl)cncc3Cl)ccc(OC)n2n1 [Example 9, 2-Ethyl-7-methoxypyrazolo[1,5-a]pyridine-4-carboxylic acid (3,5-dichloropyridin-4-yl)amide]",< 0.1,70 to 90,"+ (When 60%>the inhibition ratio≧50%, the results were represented by “+.”)"
"COc1ccc(C(=O)Nc2c(Cl)cncc2Cl)c2cc(C(F)(F)F)nn12 [Example 16, 7-Methoxy-2-trifluoromethylpyrazolo[1,5-a]pyridine-4-carboxylic acid (3,5-dichloropyridin-4-yl)amide]",< 0.1,≥ 90,"++ (When the inhibition ratio≧60%, the results were represented by “++.”)"
"CSc1ccc(C(=O)Nc2c(Cl)cncc2Cl)c2cc(C(F)(F)F)nn12 [Example 92, 7-Methylsulfanyl-2-trifluoromethylpyrazolo[1,5-a]pyridine-4-carboxylic acid (3,5-dichloropyridin-4-yl)amide]",< 0.1,30 to 70,
"O=C(Nc1c(Cl)cncc1Cl)c1ccc(CO)n2nc(C(F)(F)F)cc12 [Example 105, 7-Hydroxymethyl-2-trifluoromethylpyrazolo[1,5-a]pyridine-4-carboxylic acid (3,5-dichloropyridin-4-yl)amide]",< 0.1,≥ 90,
"CC(O)c1ccc(C(=O)Nc2c(Cl)cncc2Cl)c2cc(C(F)(F)F)nn12 (stereo not shown) [Example 107, 7-(1-Hydroxyethyl)-2-trifluoromethylpyrazolo[1,5-a]pyridine-4-carboxylic acid (3,5-dichloropyridin-4-yl)amide]",< 0.1,70 to 90,"+ (When 60%>the inhibition ratio≧50%, the results were represented by “+.”)"
